# In patent publication US20260216348A1, “IRAK DEGRADATION AGENT AND USE THEREOF” (Increland, priority 2023, published 2026):
# Test system: CIA-induced rheumatoid arthritis model
# Test: CIA-induced rheumatoid arthritis model
# Type: in vivo, DBA/1J mice
# Details: QD, Model 12.31 ± 2.97, Mean ± SD, n = 7
# Method: 1. DBA/1J mice, male, SPF grade, were pre-acclimatized in the animal facility for one week. 2. On day 1, for the primary immunization, 2 mg/mL bovine type II collagen was mixed thoroughly with an equal volume of complete Freund's adjuvant on ice using a homogenizer until fully emulsified. 100 μL of the collagen emulsion (final concentration 1 mg/mL) was intradermally injected at 2 cm from the base of the mouse tail. Medical iodophor was used to disinfect the tail after injection to prevent tail necrosis, which was conducted for 3 consecutive days. 3. On day 21, bovine type II collagen solution was thoroughly mixed and emulsified with an equal volume of Freund's incomplete adjuvant, using the same method as the primary immunization. 4. On day 26, LPS was administered intraperitoneally at a dose of 50 μg/animal to induce disease. 5. On day 28, the affected mice were scored according to Table 33 and the diameter of their ankle joints was measured. Mice were randomly grouped and treated with medication based on their scores and ankle diameter.
compound,measurement,setting,value
CN(C)c1cc2nn([C@H]3CC[C@H](CN4CC[C@@H](n5cc6cc(C7CCC(=O)NC7=O)c(F)cc6n5)[C@@H](F)C4)CC3)cc2cc1NC(=O)c1cnn2cccnc12 (some centres unmarked) [TM-135],DAI Score d 42,15 mg/kg,11.17 ± 2.36
same,DAI Score d 42,45 mg/kg,9.60 ± 3.33
